Reference: ChEMBL document CHEMBL1649565, “Besifloxacin, a novel fluoroquinolone, has broad-spectrum in vitro activity against aerobic and anaerobic bacteria” (Antimicrob Agents Chemother, 2009)
Calls of active or inactive are those of the source. No cut-off for these calls is given here.

Legend:
Klebsiella aerogenes [1] = assay: Antibacterial activity against Enterobacter aerogenes by CLSI M7-A7 method; type: functional
Enterococcus faecium = assay: Antibacterial activity against vancomycin- resistant Enterococcus faecium by CLSI M100-S18 method; type: functional
Haemophilus influenzae [2] = assay: Antibacterial activity against ciprofloxacin-susceptible Haemophilus influenzae by CLSI M7-A7 method; type: functional
Pseudomonas aeruginosa [3] = assay: Antibacterial activity against ciprofloxacin-susceptible Pseudomonas aeruginosa by CLSI M7-A7 method; type: functional
Enterobacter cloacae [4] = assay: Antibacterial activity against Enterobacter cloacae assessed as percent susceptible isolates by CLSI M7-A7 method; type: functional
Enterobacter cloacae [5] = assay: Antibacterial activity against Enterobacter cloacae by CLSI M7-A7 method; type: functional
[6] = system: Staphylococcus lugdunensis; assay: Antibacterial activity against Staphylococcus lugdunensis assessed as percent susceptible isolates by CLSI M100-S18 method; type: functional
Haemophilus influenzae [7] = assay: Antibacterial activity against non-ciprofloxacin-susceptible Haemophilus influenzae assessed as percent susceptible isolates by CLSI M7-A7 method; type: functional
Klebsiella aerogenes [8] = assay: Antibacterial activity against Enterobacter aerogenes assessed as percent susceptible isolates by CLSI M7-A7 method; type: functional
Serratia marcescens = assay: Antibacterial activity against Serratia marcescens by CLSI M7-A7 method; type: functional
Citrobacter freundii [9] = assay: Antibacterial activity against Citrobacter freundii assessed as percent susceptible isolates by CLSI M7-A7 method; type: functional
Streptococcus pneumoniae = assay: Antibacterial activity against levofloxacin-susceptible Streptococcus pneumoniae by CLSI M100-S18 method; type: functional
[10] = system: Acinetobacter calcoaceticus; assay: Antibacterial activity against Acinetobacter calcoaceticus by CLSI M7-A7 method; type: functional
Streptococcus sanguinis = assay: Antibacterial activity against Streptococcus sanguinis by CLSI M100-S18 method; type: functional
[11] = system: Streptococcus constellatus; assay: Antibacterial activity against Streptococcus constellatus by CLSI M100-S18 method; type: functional
Streptococcus pyogenes = assay: Antibacterial activity against Streptococcus pyogenes by CLSI M100-S18 method; type: functional
[12] = system: Staphylococcus haemolyticus; assay: Antibacterial activity against Staphylococcus haemolyticus by CLSI M100-S18 method; type: functional
[13] = system: Streptococcus intermedius; assay: Antibacterial activity against Streptococcus intermedius by CLSI M100-S18 method; type: functional
Streptococcus equinus = assay: Antibacterial activity against Streptococcus bovis by CLSI M100-S18 method; type: functional
[14] = system: Staphylococcus epidermidis; assay: Antibacterial activity against ciprofloxacin-susceptible and methicillin-resistant Staphylococcus epidermidis by CLSI M100-S18 method; type: functional
Haemophilus influenzae [15] = assay: Antibacterial activity against non-ciprofloxacin-susceptible Haemophilus influenzae by CLSI M7-A7 method; type: functional
[16] = system: Staphylococcus epidermidis
Listeria monocytogenes = assay: Antibacterial activity against Listeria monocytogenes by CLSI M100-S18 method; type: functional
Streptococcus mitis = assay: Antibacterial activity against Streptococcus mitis by CLSI M100-S18 method; type: functional
[17] = system: Staphylococcus lugdunensis; assay: Antibacterial activity against Staphylococcus lugdunensis by CLSI M100-S18 method; type: functional
Citrobacter freundii [18] = assay: Antibacterial activity against Citrobacter freundii by CLSI M7-A7 method; type: functional
Klebsiella oxytoca = assay: Antibacterial activity against Klebsiella oxytoca by CLSI M7-A7 method; type: functional
Staphylococcus aureus [19] = assay: Antibacterial activity against non-ciprofloxacin-susceptible and methicillin-susceptible Staphylococcus aureus by CLSI M100-S18 method; type: functional
Klebsiella pneumoniae = assay: Antibacterial activity against Klebsiella pneumoniae by CLSI M7-A7 method; type: functional
Streptococcus anginosus = assay: Antibacterial activity against Streptococcus anginosus by CLSI M100-S18 method; type: functional
Staphylococcus aureus [20] = assay: Antibacterial activity against non-ciprofloxacin-susceptible and methicillin-susceptible Staphylococcus aureus assessed as percent susceptible isolates by CLSI M100-S18 method; type: functional
Proteus vulgaris = assay: Antibacterial activity against Proteus vulgaris assessed as percent susceptible isolates by CLSI M7-A7 method; type: functional
Staphylococcus hominis [21] = assay: Antibacterial activity against Staphylococcus hominis by CLSI M100-S18 method; type: functional
[22] = system: Staphylococcus epidermidis; remark: listed apart in the source
Enterococcus faecalis = assay: Antibacterial activity against vancomycin- resistant Enterococcus faecalis by CLSI M100-S18 method; type: functional
[23] = Antibacterial activity against Lancefield Streptococcus sp. 'group G' by CLSI M100-S18 method; type: functional
Pseudomonas aeruginosa [24] = assay: Antibacterial activity against non-ciprofloxacin-susceptible Pseudomonas aeruginosa by CLSI M7-A7 method; type: functional
Acinetobacter lwoffii = assay: Antibacterial activity against Acinetobacter lwoffii by CLSI M7-A7 method; type: functional
Citrobacter koseri = assay: Antibacterial activity against Citrobacter koseri by CLSI M7-A7 method; type: functional
Staphylococcus warneri = assay: Antibacterial activity against Staphylococcus warneri by CLSI M100-S18 method; type: functional
Acinetobacter baumannii = assay: Antibacterial activity against Acinetobacter baumannii by CLSI M7-A7 method; type: functional
[25] = system: Staphylococcus haemolyticus; assay: Antibacterial activity against Staphylococcus haemolyticus assessed as percent susceptible isolates by CLSI M100-S18 method; type: functional
Staphylococcus hominis [26] = assay: Antibacterial activity against Staphylococcus hominis assessed as percent susceptible isolates by CLSI M100-S18 method; type: functional
[27] = system: Stenotrophomonas maltophilia; assay: Antibacterial activity against levofloxacin-susceptible Stenotrophomonas maltophilia by CLSI M7-A7 method; type: functional
[28] = system: Stenotrophomonas maltophilia; assay: Antibacterial activity against non-levofloxacin susceptible Stenotrophomonas maltophilia by CLSI M7-A7 method; type: functional
Legionella pneumophila = assay: Antibacterial activity against Legionella pneumophila by CLSI M7-A7 method; type: functional
[29] = system: Staphylococcus saprophyticus; assay: Antibacterial activity against Staphylococcus saprophyticus assessed as percent susceptible isolates by CLSI M100-S18 method; type: functional

## C[C@H]1COc2c(N3CCN(C)CC3)c(F)cc3c(=O)c(C(=O)O)cn1c23.C[C@H]1COc2c(N3CCN(C)CC3)c(F)cc3c(=O)c(C(=O)O)cn1c23.O [LEVOFLOXACIN]
Klebsiella aerogenes [1]
  MIC50: 0.06 µg/mL
  MIC90: 16 µg/mL
Enterococcus faecium
  MIC50: 32 µg/mL
  MIC90: 128 µg/mL
Haemophilus influenzae [2]
  MIC50: 0.015 µg/mL
  MIC90: 0.015 µg/mL
Pseudomonas aeruginosa [3]
  MIC50: 0.5 µg/mL
  MIC90: 1 µg/mL
Enterobacter cloacae [4]
  Activity: 92%
Enterobacter cloacae [5]
  MIC50: 0.03 µg/mL
  MIC90: 0.25 µg/mL
[6]
  Activity: 66.7%
Haemophilus influenzae [7]
  Activity: 27.3%
Klebsiella aerogenes [8]
  Activity: 80%
Serratia marcescens
  MIC50: 0.12 µg/mL
  MIC90: 0.5 µg/mL
Citrobacter freundii [9]
  Activity: 90%
Streptococcus pneumoniae
  MIC50: 0.5 µg/mL
  MIC90: 0.5 µg/mL
[10]
  MIC50: 0.5 µg/mL
  MIC90: 8 µg/mL
Streptococcus sanguinis
  MIC50: 1 µg/mL
  MIC90: 4 µg/mL
[11]
  MIC50: 1 µg/mL
  MIC90: 4 µg/mL
Streptococcus pyogenes
  MIC50: 0.5 µg/mL
  MIC90: 0.5 µg/mL
[12]
  MIC50: 4 µg/mL
  MIC90: > 8 µg/mL
[13]
  MIC50: 1 µg/mL
  MIC90: 4 µg/mL
Streptococcus equinus
  MIC50: 1 µg/mL
  MIC90: 4 µg/mL
[14]
  MIC: 0.12 µg/mL
  MIC50: 0.12 µg/mL
Haemophilus influenzae [15]
  MIC50: 8 µg/mL
  MIC90: 16 µg/mL
[16]
  MIC90: inactive
Listeria monocytogenes
  MIC50: 0.5 µg/mL
  MIC90: 1 µg/mL
Streptococcus mitis
  MIC50: 1 µg/mL
  MIC90: 4 µg/mL
[17]
  MIC50: 0.25 µg/mL
  MIC90: > 8 µg/mL
Citrobacter freundii [18]
  MIC50: 0.06 µg/mL
  MIC90: 2 µg/mL
Klebsiella oxytoca
  MIC50: 0.03 µg/mL
  MIC90: 0.5 µg/mL
Staphylococcus aureus [19]
  MIC50: > 8 µg/mL
  MIC90: > 8 µg/mL
Klebsiella pneumoniae
  MIC50: 0.06 µg/mL
  MIC90: 2 µg/mL
Streptococcus anginosus
  MIC50: 1 µg/mL
  MIC90: 1 µg/mL
Staphylococcus aureus [20]
  Activity: 0%
Proteus vulgaris
  Activity: 100%
Staphylococcus hominis [21]
  MIC50: 8 µg/mL
  MIC90: > 8 µg/mL
[22]
  MIC90: inactive
Enterococcus faecalis
  MIC50: 1 µg/mL
  MIC90: 64 µg/mL
[23]
  MIC50: 0.5 µg/mL
  MIC90: 0.5 µg/mL
Pseudomonas aeruginosa [24]
  MIC50: 16 µg/mL
  MIC90: 64 µg/mL
Acinetobacter lwoffii
  MIC50: 0.12 µg/mL
  MIC90: 4 µg/mL
Citrobacter koseri
  MIC50: 0.03 µg/mL
  MIC90: 0.12 µg/mL
Staphylococcus warneri
  MIC50: 0.12 µg/mL
  MIC90: > 8 µg/mL
Acinetobacter baumannii
  MIC50: 8 µg/mL
  MIC90: 64 µg/mL
[25]
  Activity: 37.6%
Staphylococcus hominis [26]
  Activity: 30%
[27]
  MIC: 4 µg/mL
[28]
  MIC: 0.12 µg/mL
Legionella pneumophila
  MIC50: 0.03 µg/mL
  MIC90: 0.03 µg/mL
[29]
  Activity: 100%
